The target of test [1] is human RORγt ligand binding domain (RORγt LBD) (Homo sapiens (Human), UniProt P51449). In words: RORγt ThermoFluor assay. The gist of the method:
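Thermal shift of His-tagged human RORγt LBD (0.065 mg/mL) with 60 μM 1,8-ANS in 100 mM Hepes pH 7.0, 10 mM NaCl, 2.5 mM GSH, 0.002% Tween-20, heated at 1° C./min. Compounds in 1:2 series from a 10 mM DMSO stock; KD estimated from ΔTm using protein unfolding thermodynamics.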

The target of test [2] is full-length human RORγt (Homo sapiens (Human), UniProt P51449). In words: RORγt (full-length human) reporter assay, conditions A or B. Format: cell-based. The following applies: for inhibition at 1 µM: 1 μM compound concentration (***); for IC50: HEK293T cells, read-out: RORγt (FL) Reporter Assay A or B, IC50; for inhibition at 2 µM: 2 μM compound concentration (**); for inhibition at 6 µM: read-out: RORγt (FL) Reporter Assay A or B, % inhibition @ 6 μM, 6 μM compound concentration. Put shortly:
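HEK293T cells transiently co-transfected (PEI) with GAL4-DBD–RORγt, GAL4-firefly luciferase and CMV-Renilla reporters; condition A 35,000 cells/well, 170.5 ng DNA/well; condition B 8750 cells/well, 42.6 ng DNA/well.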

The mark [3] stands for this setting: read-out: RORγt (FL) Reporter Assay A or B, % inhibition.
Setting [4] is: read-out: RORγt (FL) Reporter Assay A or B, % inhibition, 3 μM compound concentration (*).
The mark [5] stands for this setting: 0.67 μM compound concentration (****), read-out: RORγt (FL) Reporter Assay A or B, % inhibition.
Where [6] appears, read: 3 μM compound concentration (*), read-out: RORγt (FL) Reporter Assay A or B, % inhibition.

The results in this text go back to patent US11345666B2, “Phenyl and pyridinyl substituted imidazoles as modulators of RORγT” (Janssen Pharmaceutica NV, priority 2018, dated 2022).

Each structure is given as a SMILES string. Like-named read-outs stand apart in the source and are kept apart here. Marks after values point to notes of the source that are not given here.

Sequence of full-length human RORγt (P51449 other isoform, or with tags, fused parts or gaps): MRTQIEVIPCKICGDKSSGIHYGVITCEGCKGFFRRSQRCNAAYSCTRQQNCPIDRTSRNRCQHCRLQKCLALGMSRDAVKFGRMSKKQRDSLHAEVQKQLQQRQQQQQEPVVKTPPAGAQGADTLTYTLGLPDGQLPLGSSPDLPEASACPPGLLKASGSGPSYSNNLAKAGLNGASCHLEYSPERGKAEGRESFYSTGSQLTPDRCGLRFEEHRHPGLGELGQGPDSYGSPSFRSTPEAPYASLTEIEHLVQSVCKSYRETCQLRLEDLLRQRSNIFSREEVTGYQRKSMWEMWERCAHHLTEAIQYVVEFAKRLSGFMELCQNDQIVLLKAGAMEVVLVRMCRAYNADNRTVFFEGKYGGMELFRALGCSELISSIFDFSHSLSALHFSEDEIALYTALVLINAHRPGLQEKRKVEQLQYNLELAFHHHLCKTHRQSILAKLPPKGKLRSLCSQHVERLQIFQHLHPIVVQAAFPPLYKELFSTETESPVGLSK
Sequence of human RORγt ligand binding domain (RORγt LBD) (P51449 other isoform, or with tags, fused parts or gaps): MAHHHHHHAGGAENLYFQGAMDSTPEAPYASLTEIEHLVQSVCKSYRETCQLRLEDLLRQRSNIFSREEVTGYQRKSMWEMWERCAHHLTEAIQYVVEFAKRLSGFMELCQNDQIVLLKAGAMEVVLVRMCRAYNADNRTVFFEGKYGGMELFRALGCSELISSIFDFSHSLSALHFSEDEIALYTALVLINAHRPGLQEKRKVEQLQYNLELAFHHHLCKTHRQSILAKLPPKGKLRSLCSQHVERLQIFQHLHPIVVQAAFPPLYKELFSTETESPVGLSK

Turning to `CCc1nc(C(=O)NC[C@H]2CC[C@H](S(C)(=O)=O)CC2)c(C)n1-c1ncc(C[C@H](C)C(F)(F)F)cc1OC(F)F` (single isomer, unassigned) [Example 73, 1-(3-(Difluoromethoxy)-5-((S*)-3,3,3-trifluoro-2-methylpropyl)pyridin-2-yl)-2-ethyl-5-methyl-N-(((1r,4S)-4-(methylsulfonyl)cyclohexyl)methyl)-1H-imidazole-4-carboxamide], the Kd (commonly a measure of binding affinity in units of concentration) in test [1] came to 38 nM. Moreover, the inhibition at 1 µM in test [2] (setting [3]) came out at 80%. Moreover, the IC50 (in general, the point on the concentration scale where inhibition reaches its midpoint) in test [2] stood at 110 nM.

As for `CCc1nc(C(=O)NC[C@H]2CC[C@H](S(C)(=O)=O)CC2)c(Cl)n1-c1ncc(CC(C)(C)C(F)(F)F)cc1OC` [Example 125, 5-Chloro-2-ethyl-1-(3-methoxy-5-(3,3,3-trifluoro-2,2-dimethylpropyl)pyridin-2-yl)-N-(((1r,4r)-4-(methylsulfonyl)cyclohexyl)methyl)-1H-imidazole-4-carboxamide], binding in test [1] was put at a Kd of 1.8 nM. For the same compound, in test [2] (setting [3]), the inhibition at 2 µM amounted to 99%. Moreover, the IC50 in test [2] came out at 11 nM.

For `CCc1nc(C(=O)NC[C@]2(O)CC[C@@H](S(C)(=O)=O)CC2)c(Cl)n1-c1ccc(CCC(F)(F)F)cc1F` [Example 23, 5-Chloro-2-ethyl-1-(2-fluoro-4-(3,3,3-trifluoropropyl)phenyl)-N-(((1s,4s)-1-hydroxy-4-(methylsulfonyl)cyclohexyl)methyl)-1H-imidazole-4-carboxamide], the Kd in test [1] turned out to be 49 nM. In addition, in test [2], the IC50 is 37 nM and the inhibition at 6 µM came out at 41%.

With `CCc1nc(C(=O)NC[C@H]2CC[C@H](S(C)(=O)=O)CC2)c(Cl)n1-c1ncc(C[C@@H](C)C(F)(F)F)cc1OC(F)F` (single isomer, unassigned) [Example 78, 5-Chloro-1-(3-(difluoromethoxy)-5-((R*)-3,3,3-trifluoro-2-methylpropyl)pyridin-2-yl)-2-ethyl-N-(((1r,4R)-4-(methylsulfonyl)cyclohexyl)methyl)-1H-imidazole-4-carboxamide], binding in test [1] was characterised by a dissociation constant (Kd) of 7 nM. Further, the inhibition at 1 µM in test [2] (setting [3]) stood at 94%. The IC50 in test [2] amounted to 96 nM.

Consider `CCc1nc(C(=O)NC[C@]2(C#N)CC[C@@H](S(C)(=O)=O)CC2)c(C)n1-c1ncc(CC(C)(C)C(F)(F)F)cc1OC` [Example 128, N-(((1s*,4s*)-1-Cyano-4-(methylsulfonyl)cyclohexyl)methyl)-2-ethyl-1-(3-methoxy-5-(3,3,3-trifluoro-2,2-dimethylpropyl)pyridin-2-yl)-5-methyl-1H-imidazole-4-carboxamide], for which the dissociation constant Kd in test [1] worked out at 37 nM. In test [2], the IC50 is 310 nM and the inhibition at 6 µM was determined as 105%.

For `CCc1nc(C(=O)NC[C@H]2CC[C@H](S(C)(=O)=O)C[C@@H]2O)c(Cl)n1-c1ncc(CC(C)(C)C(F)(F)F)cc1OC(F)F` (single isomer, unassigned) [Example 58, 5-Chloro-1-(3-(difluoromethoxy)-5-(3,3,3-trifluoro-2,2-dimethylpropyl)pyridin-2-yl)-2-ethyl-N-(((1R*,2S*,4S*)-2-hydroxy-4-(methylsulfonyl)cyclohexyl)methyl)-1H-imidazole-4-carboxamide], binding in test [1] was characterised by a dissociation constant (Kd) of 12 nM. In addition, the IC50 in test [2] turned out to be 160 nM. Moreover, the inhibition at 3 µM in test [2] (setting [4]) turned out to be 121%.

For `C#Cc1c(C(=O)NC[C@]2(C#N)CC[C@@H](S(C)(=O)=O)CC2)nc(CC)n1-c1ccc(CC(C)(C)C(F)(F)F)cc1OC(F)F` [Example 39, N-(((1s*,4s*)-1-Cyano-4-(methylsulfonyl)cyclohexyl)methyl)-1-(2-(difluoromethoxy)-4-(3,3,3-trifluoro-2,2-dimethylpropyl)phenyl)-2-ethyl-5-ethynyl-1H-imidazole-4-carboxamide], in test [1], the Kd was 0.42 nM. Further, the inhibition at 0.67 µM in test [2] (setting [5]) turned out to be 101%. In addition, the IC50 in test [2] is 7.9 nM.

`CCc1nc(C(=O)NC[C@]2(O)CC[C@@H](S(C)(=O)=O)C[C@H]2O)c(Cl)n1-c1ncc(CC(C)(C)C(F)(F)F)cc1OC(F)F` (stereo in doubt) [Example 60, 5-Chloro-1-(3-(difluoromethoxy)-5-(3,3,3-trifluoro-2,2-dimethylpropyl)pyridin-2-yl)-N-(((1R*,2R*,4R*)-1,2-dihydroxy-4-(methylsulfonyl)cyclohexyl)methyl)-2-ethyl-1H-imidazole-4-carboxamide] registered a Kd in test [1] of 34 nM. In test [2] (setting [6]), the inhibition at 3 µM came to 86%. For the same compound, in test [2], the IC50 was 190 nM.

As for `CCc1nc(C(=O)NC[C@]2(O)CC[C@@H](S(C)(=O)=O)CC2)c(C)n1-c1ccc(CC(C(F)(F)F)C(F)(F)F)c(F)c1` [Example 106, 2-Ethyl-1-(3-fluoro-4-(3,3,3-trifluoro-2-(trifluoromethyl)propyl)phenyl)-N-(((1s,4s)-1-hydroxy-4-(methylsulfonyl)cyclohexyl)methyl)-5-methyl-1H-imidazole-4-carboxamide], the affinity in test [1], expressed as Kd, was 55 nM. Further, the inhibition at 0.22 µM in test [2] (0.22 μM compound concentration (******), read-out: RORγt (FL) Reporter Assay A or B, % inhibition) was 40%. Further, the IC50 in test [2] turned out to be 170 nM.

In test [1], `CCc1nc(C(=O)NC[C@]2(C#N)CC[C@@H](S(C)(=O)=O)CC2)c(F)n1-c1ccc(CC(C)(C)C(F)(F)F)cc1OC(F)F` [Example 38, N-(((1s*,4s*)-1-Cyano-4-(methylsulfonyl)cyclohexyl)methyl)-1-(2-(difluoromethoxy)-4-(3,3,3-trifluoro-2,2-dimethylpropyl)phenyl)-2-ethyl-5-fluoro-1H-imidazole-4-carboxamide] gave a Kd of 4.4 nM. Also, in test [2] (setting [5]), the inhibition at 0.67 µM was determined as 97%. The IC50 in test [2] was determined as 19 nM.

For the compound `CCc1nc(C(=O)NC[C@H]2CC[C@H](S(C)(=O)=O)CC2)c(C)n1-c1ncc(CC(C(F)(F)F)C(F)(F)F)cc1OC(F)F` [Example 77, 1-(3-(Difluoromethoxy)-5-(3,3,3-trifluoro-2-(trifluoromethyl)propyl)pyridin-2-yl)-2-ethyl-5-methyl-N-(((1r,4r)-4-(methylsulfonyl)cyclohexyl)methyl)-1H-imidazole-4-carboxamide], binding in test [1] was characterised by a dissociation constant (Kd) of 20 nM. Also, the inhibition at 3 µM in test [2] (setting [6]) was determined as 101%. Further, the IC50 in test [2] turned out to be 77 nM.

Consider `CCc1nc(C(=O)NC[C@]2(O)CC[C@@H](S(C)(=O)=O)C[C@H]2O)c(Cl)n1-c1ncc(CC(C(F)(F)F)C(F)(F)F)cc1OC(F)F` (stereo in doubt) [Example 67, 5-Chloro-1-(3-(difluoromethoxy)-5-(3,3,3-trifluoro-2-(trifluoromethyl)propyl)pyridin-2-yl)-N-(((1R*,2R*,4R*)-1,2-dihydroxy-4-(methylsulfonyl)cyclohexyl)methyl)-2-ethyl-1H-imidazole-4-carboxamide], for which, in test [1], the Kd was found to be 53 nM. Further, the inhibition at 3 µM in test [2] (setting [6]) is 103%. The IC50 in test [2] was 170 nM.

As for `[2H]C([2H])([2H])Oc1cc(CC(C)(C)C(F)(F)F)ccc1-n1c(CC)nc(C(=O)NC[C@]2(O)CC[C@@H](S(C)(=O)=O)CC2)c1F` [Example 32, 2-Ethyl-5-fluoro-N-(((1s,4s)-1-hydroxy-4-(methylsulfonyl)cyclohexyl)methyl)-1-(2-(methoxy-d3)-4-(3,3,3-trifluoro-2,2-dimethylpropyl)phenyl)-1H-imidazole-4-carboxamide], in test [1], binding was put at a Kd of 12 nM. For the same compound, the inhibition at 2 µM in test [2] (setting [3]) amounted to 99%. For the same compound, the IC50 in test [2] is 71 nM.

As for `CCc1nc(C(=O)NC[C@H]2CC[C@H](S(C)(=O)=O)CC2)c(Cl)n1-c1ccc(CCCC(F)(F)F)cc1F` [Example 97, 5-Chloro-2-ethyl-1-(2-fluoro-4-(4,4,4-trifluorobutyl)phenyl)-N-(((1r,4r)-4-(methylsulfonyl)cyclohexyl)methyl)-1H-imidazole-4-carboxamide], in test [1], binding was put at a Kd of 14 nM. Besides, the inhibition at 0.67 µM in test [2] (setting [5]) was 53%. Moreover, the IC50 in test [2] was determined as 22 nM.

As to `Cc1nc(C(=O)NC[C@H]2CC[C@H](S(C)(=O)=O)C[C@@H]2O)c(C#N)n1-c1ccc(CC(C)(C)C(F)(F)F)cc1OC(F)F` (single isomer, unassigned) [Example 56, 5-Cyano-1-(2-(difluoromethoxy)-4-(3,3,3-trifluoro-2,2-dimethylpropyl)phenyl)-N-(((1R*,2S*,4S*)-2-hydroxy-4-(methylsulfonyl)cyclohexyl)methyl)-2-methyl-1H-imidazole-4-carboxamide], in test [1], the affinity, expressed as Kd, was 32 nM. The IC50 in test [2] is 63 nM. Also, the inhibition at 3 µM in test [2] (setting [4]) is 102%.

With `CCc1nc(C(=O)NC[C@H]2CC[C@H](S(C)(=O)=O)CC2)c(Cl)n1-c1ccc(CC(C)C(F)(F)F)cc1OC` (single isomer, unassigned) [Example 5, 5-Chloro-2-ethyl-1-((1R*)-2-methoxy-4-(3,3,3-trifluoro-2-methylpropyl)phenyl)-N-(((1r,4R)-4-(methylsulfonyl)cyclohexyl)methyl)-1H-imidazole-4-carboxamide], in test [1], binding was characterised by a dissociation constant (Kd) of 1300 nM. Moreover, in test [2] (0.67 μM compound concentration (****)), the “RORγt (FL) Reporter Assay A or B, % inhibition” value is 43**** %. Moreover, the 50% inhibitory concentration (IC50) in test [2] came out at 260 nM.
